IC50 data for 19 molecules are collected here from patent US20230092890A1, “1, 3, 4-Oxadiazole derivative compounds as histone deacetylase 6 inhibitor, and the pharmaceutical composition comprising the same” (Chong Kun Dang Pharmaceutical Corp., priority 2019, published 2023).

A value given as a limit tells only on which side of the number the result lay.

In one test the target is T1, HDAC6 human recombinant (Homo sapiens, UniProt Q9UBN7).
T1 construct: purchased Calbiochem 382180
T1 sequence (Q9UBN7 1-1215): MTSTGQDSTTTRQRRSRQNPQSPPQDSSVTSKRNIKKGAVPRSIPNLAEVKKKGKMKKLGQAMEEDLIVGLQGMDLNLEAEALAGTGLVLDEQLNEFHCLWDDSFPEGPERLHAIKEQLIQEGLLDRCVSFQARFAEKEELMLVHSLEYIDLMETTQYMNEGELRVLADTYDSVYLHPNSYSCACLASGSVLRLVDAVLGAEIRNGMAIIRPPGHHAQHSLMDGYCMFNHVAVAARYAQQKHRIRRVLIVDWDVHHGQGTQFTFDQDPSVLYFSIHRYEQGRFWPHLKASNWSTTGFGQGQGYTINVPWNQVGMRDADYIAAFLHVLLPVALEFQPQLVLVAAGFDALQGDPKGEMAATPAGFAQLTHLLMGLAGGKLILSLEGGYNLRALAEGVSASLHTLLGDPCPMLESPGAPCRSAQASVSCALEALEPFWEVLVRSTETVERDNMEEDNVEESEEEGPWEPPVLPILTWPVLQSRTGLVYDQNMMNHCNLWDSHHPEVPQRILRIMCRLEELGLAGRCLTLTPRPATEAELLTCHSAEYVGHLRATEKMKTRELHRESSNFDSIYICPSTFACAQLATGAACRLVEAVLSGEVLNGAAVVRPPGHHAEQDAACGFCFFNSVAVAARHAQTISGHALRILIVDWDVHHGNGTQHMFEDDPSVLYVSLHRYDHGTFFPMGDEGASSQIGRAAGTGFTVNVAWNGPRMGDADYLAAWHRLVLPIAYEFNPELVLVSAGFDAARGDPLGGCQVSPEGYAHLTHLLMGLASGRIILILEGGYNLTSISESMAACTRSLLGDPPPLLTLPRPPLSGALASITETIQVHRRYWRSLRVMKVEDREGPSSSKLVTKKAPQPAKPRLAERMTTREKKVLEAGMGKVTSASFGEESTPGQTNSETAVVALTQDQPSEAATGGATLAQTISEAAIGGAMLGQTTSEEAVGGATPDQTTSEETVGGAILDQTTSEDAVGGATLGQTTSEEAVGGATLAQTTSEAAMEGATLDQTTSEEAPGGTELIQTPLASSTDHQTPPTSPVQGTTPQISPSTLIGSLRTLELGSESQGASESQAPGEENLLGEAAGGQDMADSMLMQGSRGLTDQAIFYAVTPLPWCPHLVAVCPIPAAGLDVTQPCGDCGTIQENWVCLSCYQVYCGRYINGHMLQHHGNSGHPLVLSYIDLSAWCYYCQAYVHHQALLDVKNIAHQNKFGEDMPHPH
The experiment in a line: HDAC enzyme activity inhibition (in vitro), HDAC6 assay. Particulars: samples at 0.1, 1, 10, 100 and 1000 nM; 37° C. 60 minutes; fluorescence Ex 390, Em 460; read-out: HDAC6 IC50. Format: biochemical. A digest of the protocol: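 Fluorescence (Ex 390, Em 460) read after a 37° C, 60 min enzyme reaction and a further 30 min developer step at 37° C. Uses recombinant human HDAC6; HDAC1 arm dosed at 100, 1000, 10000 nM.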

The next test concerns the target T2, HDAC1 (Homo sapiens, UniProt Q13547).
T2 construct: purchased Enzolifesciences BML-AK511
The experiment in a line: HDAC enzyme activity inhibition (in vitro), HDAC1 Fluorimetric Drug Discovery Assay Kit. It is filed as biochemical. Particulars: samples at 100, 1000 and 10000 nM; 37° C. 60 minutes; fluorescence Ex 390, Em 460; read-out: HDAC1 IC50. A digest of the protocol: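 Fluorescence read-out (Ex 390/Em 460) after developer step, 30 min at 37° C, following a 60-min 37° C enzyme reaction. Test concentrations: HDAC1 kit, 100–10000 nM (three levels); recombinant human HDAC6, 0.1–1000 nM (five levels).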

T2 sequence (Q13547 whole entry): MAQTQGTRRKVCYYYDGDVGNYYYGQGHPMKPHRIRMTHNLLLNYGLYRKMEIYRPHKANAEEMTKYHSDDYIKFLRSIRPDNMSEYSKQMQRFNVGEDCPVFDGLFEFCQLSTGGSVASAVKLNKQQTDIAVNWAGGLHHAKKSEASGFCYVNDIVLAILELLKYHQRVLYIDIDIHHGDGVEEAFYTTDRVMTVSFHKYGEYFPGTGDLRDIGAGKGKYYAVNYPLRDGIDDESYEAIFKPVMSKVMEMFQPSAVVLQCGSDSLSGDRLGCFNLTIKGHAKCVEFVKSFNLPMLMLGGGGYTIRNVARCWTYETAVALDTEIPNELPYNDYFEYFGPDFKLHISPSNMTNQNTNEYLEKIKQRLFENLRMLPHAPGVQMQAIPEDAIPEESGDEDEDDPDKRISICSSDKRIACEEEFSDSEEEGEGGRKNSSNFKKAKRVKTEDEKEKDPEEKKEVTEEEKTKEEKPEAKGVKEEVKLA

As for `O=c1n(Cc2ccc(-c3nnc(C(F)F)o3)cc2F)c2cc(Cl)c(Cl)cc2n1C1CCN(C2COC2)CC1` [Compound 88, 5,6-dichloro-1-(4-(5-(difluoromethyl)-1,3,4-oxadiazole-2-yl)-2-fluorobenzyl)-3-(1-(oxetan-3-yl)piperidine-4-yl)-1,3-dihydro-2H-benzo[d]imidazole-2-one], the values for the IC50 at HDAC6 human recombinant and at HDAC1 were 38 nM and greater than 10000 nM, respectively.
In the same order, the values of `CN1CCC(n2c(=O)n(Cc3ccc(-c4nnc(C(F)F)o4)cn3)c3cc(C(F)(F)F)ccc32)CC1` [Compound 89, 3-((5-(5-(difluoromethyl)-1,3,4-oxadiazole-2-yl)pyridine-2-yl)methyl)-1-(1-methylpiperidine-4-yl)-5-(trifluoromethyl)-1,3-dihydro-2H-benzo[d]imidazole-2-one] are 38 nM and greater than 10000 nM.
For `O=c1n(Cc2ccc(-c3nnc(C(F)F)o3)cn2)c2cc(C(F)(F)F)ccc2n1C1CCN(C2COC2)CC1` [Compound 90, 3-((5-(5-(difluoromethyl)-1,3,4-oxadiazole-2-yl)pyridine-2-yl)methyl)-1-(1-(oxetan-3-yl)piperidine-4-yl)-5-(trifluoromethyl)-1,3-dihydro-2H-benzo[d]imidazole-2-one] the same measures were 31 nM and greater than 10000 nM.
In the same order, the values of `CN1CCC(n2c(=O)n(Cc3ccc(-c4nnc(C(F)F)o4)cc3F)c3cc(C(F)(F)F)ccc32)CC1` [Compound 91] are 58 nM and greater than 10000 nM.
Turning to `O=c1n(Cc2ccc(-c3nnc(C(F)F)o3)cc2F)c2cc(C(F)(F)F)ccc2n1C1CCN(C2COC2)CC1` [Compound 92, 3-(4-(5-(difluoromethyl)-1,3,4-oxadiazole-2-yl)-2-fluorobenzyl)-1-(1-(oxetan-3-yl)piperidine-4-yl)-5-(trifluoromethyl)-1,3-dihydro-2H-benzo[d]imidazole-2-one], the IC50 at HDAC6 human recombinant was 62 nM; at HDAC1 it was greater than 10000 nM.
For `CN1CCC(n2c(=O)n(Cc3ccc(-c4nnc(C(F)F)o4)cc3F)c3cc(F)c(F)cc32)CC1` [Compound 93, 1-(4-(5-(difluoromethyl)-1,3,4-oxadiazole-2-yl)-2-fluorobenzyl)-5,6-difluoro-3-(1-methylpiperidine-4-yl)-1,3-dihydro-2H-benzo[d]imidazole-2-one] the same measures were 40 nM and greater than 10000 nM.
In the same order, the values of `O=c1n(Cc2ccc(-c3nnc(C(F)F)o3)cc2F)c2cc(F)c(F)cc2n1C1CCN(C2COC2)CC1` [Compound 94, 1-(4-(5-(difluoromethyl)-1,3,4-oxadiazole-2-yl)-2-fluorobenzyl)-5,6-difluoro-3-(1-(oxetan-3-yl)piperidine-4-yl)-1,3-dihydro-2H-benzo[d]imidazole-2-one] are 45 nM and greater than 10000 nM.
Regarding `CN1CCC(n2c(=O)n(Cc3ccc(-c4nnc(C(F)F)o4)cc3)c3cc(F)c(F)cc32)CC1` [Compound 95, 1-(4-(5-(difluoromethyl)-1,3,4-oxadiazole-2-yl)benzyl)-5,6-difluoro-3-(1-methylpiperidine-4-yl)-1,3-dihydro-2H-benzo[d]imidazole-2-one], the IC50 on HDAC6 human recombinant was 51 nM; on HDAC1, greater than 10000 nM.
Consider `O=c1n(Cc2ccc(-c3nnc(C(F)F)o3)cc2)c2cc(F)c(F)cc2n1C1CCN(C2COC2)CC1` [Compound 96, 1-(4-(5-(difluoromethyl)-1,3,4-oxadiazole-2-yl)benzyl)-5,6-difluoro-3-(1-(oxetan-3-yl)piperidine-4-yl)-1,3-dihydro-2H-benzo[d]imidazole-2-one], for which the IC50 at HDAC6 human recombinant is 36 nM; at HDAC1 it was greater than 10000 nM.
In the same order, the values of `CN1CCC(n2c(=O)n(Cc3ccc(-c4nnc(C(F)F)o4)cn3)c3ccc(Cl)cc32)CC1` [Compound 97, 5-chloro-1-((5-(5-(difluoromethyl)-1,3,4-oxadiazole-2-yl)pyridine-2-yl)methyl)-3-(1-methylpiperidine-4-yl)-1,3-dihydro-2H-benzo[d]imidazole-2-one] are 32 nM and greater than 10000 nM.
In the same order, the values of `O=c1n(Cc2ccc(-c3nnc(C(F)F)o3)cn2)c2ccc(Cl)cc2n1C1CCN(C2COC2)CC1` [Compound 98, 5-chloro-1-((5-(5-(difluoromethyl)-1,3,4-oxadiazole-2-yl)pyridine-2-yl)methyl)-3-(1-(oxetan-3-yl)piperidine-4-yl)-1,3-dihydro-2H-benzo[d]imidazole-2-one] are 28 nM and greater than 10000 nM.
In the same order, the values of `CN1CCC(n2c(=O)n(Cc3ccc(-c4nnc(C(F)F)o4)cc3)c3ccc(Cl)cc32)CC1` [Compound 99, 5-chloro-1-(4-(5-(difluoromethyl)-1,3,4-oxadiazole-2-yl)benzyl)-3-(1-methylpiperidine-4-yl)-1,3-dihydro-2H-benzo[d]imidazole-2-one] are 37 nM and greater than 10000 nM.
In the case of `O=c1n(Cc2ccc(-c3nnc(C(F)F)o3)cc2)c2ccc(Cl)cc2n1C1CCN(C2COC2)CC1` [Compound 100, 5-chloro-1-(4-(5-(difluoromethyl)-1,3,4-oxadiazole-2-yl)benzyl)-3-(1-(oxetan-3-yl)piperidine-4-yl)-1,3-dihydro-2H-benzo[d]imidazole-2-one], the values for the IC50 on HDAC6 human recombinant and at HDAC1 were 39 nM and greater than 10000 nM, respectively.
In the same order, the values of `CN1CCC(n2c(=O)n(Cc3ccc(-c4nnc(C(F)F)o4)cc3F)c3ccc(Cl)cc32)CC1` [Compound 101, 5-chloro-1-(4-(5-(difluoromethyl)-1,3,4-oxadiazole-2-yl)-2-fluorobenzyl)-3-(1-methylpiperidine-4-yl)-1,3-dihydro-2H-benzo[d]imidazole-2-one] are 44 nM and greater than 10000 nM.
As for `O=c1n(Cc2ccc(-c3nnc(C(F)F)o3)cc2F)c2ccc(Cl)cc2n1C1CCN(C2COC2)CC1` [Compound 102, 5-chloro-1-(4-(5-(difluoromethyl)-1,3,4-oxadiazole-2-yl)-2-fluorobenzyl)-3-(1-(oxetan-3-yl)piperidine-4-yl)-1,3-dihydro-2H-benzo[d]imidazole-2-one], the IC50 is 59 nM at HDAC6 human recombinant and greater than 10000 nM on HDAC1.
With `CN1CCC(n2c(=O)n(Cc3ccc(-c4nnc(C(F)F)o4)cc3F)c3ncccc32)CC1` [Compound 103, 3-(4-(5-(difluoromethyl)-1,3,4-oxadiazole-2-yl)-2-fluorobenzyl)-1-(1-methylpiperidine-4-yl)-1,3-dihydro-2H-imidazo[4,5-b]pyridine-2-one], the half-inhibitory concentration (IC50) at HDAC6 human recombinant was 342 nM; at HDAC1, greater than 10000 nM.
Take `O=c1n(Cc2ccc(-c3nnc(C(F)F)o3)cc2F)c2ncccc2n1C1CCN(C2COC2)CC1` [Compound 104, 3-(4-(5-(difluoromethyl)-1,3,4-oxadiazole-2-yl)-2-fluorobenzyl)-1-(1-(oxetan-3-yl)piperidine-4-yl)-1,3-dihydro-2H-imidazo[4,5-b]pyridine-2-one]: the results for the IC50 on HDAC6 human recombinant and on HDAC1 were 283 nM and greater than 10000 nM, respectively.
For `CN1CCC(n2c(=O)n(Cc3ccc(-c4nnc(C(F)F)o4)cc3)c3ncccc32)CC1` [Compound 105, 3-(4-(5-(difluoromethyl)-1,3,4-oxadiazole-2-yl)benzyl)-1-(1-methylpiperidine-4-yl)-1,3-dihydro-2H-imidazo[4,5-b]pyridine-2-one] the same measures were 640 nM and greater than 10000 nM.
Take `O=c1n(Cc2ccc(-c3nnc(C(F)F)o3)cc2)c2ncccc2n1C1CCN(C2COC2)CC1` [Compound 106, 3-(4-(5-(difluoromethyl)-1,3,4-oxadiazole-2-yl)benzyl)-1-(1-(oxetan-3-yl)piperidine-4-yl)-1,3-dihydro-2H-imidazo[4,5-b]pyridine-2-one]: the figures for the IC50 at HDAC6 human recombinant and on HDAC1 were 391 nM and greater than 10000 nM, respectively.

One may read the IC50 as the midpoint of a concentration-inhibition curve.
